Literature values as cited in patent publication US20050096371A1, “Topical pharmaceutical compositions” (priority 2003, published 2005).

Columns and labels:
human subjects = conditions: repeated insult patch test, 50 human subjects, total of 15 applications; manufacturer's brochure
humans = conditions: Marzulli and Maibach's method

SMILES	primary dermal irritation / sensitization (human subjects)	PII (rabbit skin)	irritation to rabbit skin (rabbit skin)	cutaneous irritation (rabbits)	cutaneous irritation / sensitization (humans)
CN1CCCC1=O [Pharmasolve®, N-methyl-2-pyrrolidone]	neither a primary dermal irritant nor a sensitizer	0.5	practically nonirritating	–	–
CCOCCOCCO [Transcutol®, diethylene glycol monoethyl ether]	–	–	–	nonirritating	nonirritating and non-sensitizing
